Patent US8952024B2, “Herbicidal pyrimidone derivatives” (E I du Pont de Nemours and Company, priority 2009, dated 2015)

Legend:
Assay type in all cases: in vivo
[1] = system: winter barley (Hordeum vulgare); assay: Test B postemergence plant response
Description: At the same time, plants selected from these crop and weed species and also winter barley (Hordeum vulgare), canarygrass (Phalaris minor), chickweed (Stellaria media) and windgrass (Apera spica-venti) were planted in pots containing Redi-Earth® planting medium (Scotts Company, 14111 Scottslawn Road, Marysville, Ohio 43041) comprising spaghnum peat moss, vermiculite, wetting agent and starter nutrients and treated with postemergence applications of some of the test chemicals formulated in the same manner. Plants ranged in height from 2 to 18 cm (1- to 4-leaf stage) for postemergence treatments.
Treated plants and controls were maintained in a greenhouse for 13 to 15 days, after which time all treated plants were visually evaluated and compared to controls. Plant response ratings, summarized in Table B, are based on a scale of 0 to 100 where 0 is no effect and 100 is complete control. A dash (-) response means no test result.

[2] = system: barnyardgrass (Echinochloa crus-galli); assay: Test B flooded paddy test; details: for Plant response rating, Barnyardgrass: Flood (flooded paddy test), 13 to 15 days
How it was run: (§1)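 Rice, umbrella sedge, ducksalad and barnyardgrass were grown to the 2-leaf stage, flooded to 3 cm, and compound was applied directly to the paddy water, with that depth kept throughout. After 13 to 15 days in the greenhouse, plants were visually rated against controls on a 0 (no effect) to 100 (complete control) scale.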

rice (Oryza sativa) = assay: Test B flooded paddy test; details: for Plant response rating, Rice: Flood (flooded paddy test), 13 to 15 days
How it was run: as §1

[3] = system: ducksalad (Heteranthera limosa); assay: Test B flooded paddy test; details: for Plant response rating, Ducksalad: Flood (flooded paddy test), 13 to 15 days
How it was run: as §1

[4] = system: umbrella sedge (Cyperus difformis); assay: Test B flooded paddy test; details: for Plant response rating, Sedge, Umbrella: Flood (flooded paddy test), 13 to 15 days
How it was run: as §1

[5] = system: barnyardgrass (Echinochloa crus-galli); assay: Test A pre-/postemergence plant response
How it was run: (§2)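 Greenhouse trial, ~10 days. Soil (loam/sand) sprayed preemergence after seeding; emerged plants (1–2 leaf, 2–10 cm) sprayed postemergence in parallel. Response = visual injury vs untreated control, 0–100.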

[6] = system: morningglory (Ipomoea spp.); assay: Test A pre-/postemergence plant response
How it was run: as §2

[7] = system: velvetleaf (Abutilon theophrasti); assay: Test A pre-/postemergence plant response
How it was run: as §2

[8] = system: pigweed (Amaranthus retroflexus); assay: Test A pre-/postemergence plant response
How it was run: as §2

[9] = system: wheat (Triticum aestivum); assay: Test A pre-/postemergence plant response
How it was run: as §2

[10] = system: large crabgrass (Digitaria sanguinalis); assay: Test A pre-/postemergence plant response
How it was run: as §2

[11] = system: giant foxtail (Setaria faberii); assay: Test A pre-/postemergence plant response
How it was run: as §2

corn (Zea mays) = assay: Test A pre-/postemergence plant response
How it was run: as §2

[12] = 250 g ai/ha, flooded paddy test, visual rating on 0 to 100 scale (0 no effect, 100 complete control) after 13 to 15 days
[13] = 31 g ai/ha, scale of 0 to 100 where 0 is no effect and 100 is complete control
[14] = 62 g ai/ha, scale of 0 to 100 where 0 is no effect and 100 is complete control
[15] = 125 g ai/ha, scale 0 to 100, 0 is no effect, 100 is complete control
[16] = Postemergence, 125 g ai/ha, visual injury, 0 to 100 scale (0 no effect, 100 complete control), approx. ten days
[17] = Postemergence, 500 g ai/ha, 0 to 100 scale, 0 = no effect, 100 = complete control, approx. ten days
[18] = Preemergence, 125 g ai/ha, 0 to 100 scale, 0 = no effect, 100 = complete control
[19] = Preemergence, 500 g ai/ha, visual injury, 0 to 100 scale (0 no effect, 100 complete control), approx. ten days

Structure (SMILES): Cn1c(-c2ccccc2)ncc(C(=O)C2=C(O)CCCC2=O)c1=O [Compound 55]
- Plant response rating, Barley ([1]; 31 g ai/ha, postemergence, scale 0 to 100, 0 is no effect, 100 is complete control): 0
- Plant response rating, Barley ([1]; Postemergence, 62 g ai/ha, scale 0 (no effect) to 100 (complete control), 13 to 15 days): 0
- Plant response rating, Barley ([1]; Postemergence, 125 g ai/ha, visual rating after 13 to 15 days, scale 0 (no effect) to 100 (complete control)): 0
- Plant response rating, Barley ([1]; Postemergence, 250 g ai/ha, scale 0 to 100 (0 no effect, 100 complete control)): 0
- Plant response rating, Flood, Barnyardgrass [2, 12]: 20
- Plant response rating, Barnyardgrass [2, 13]: 0
- Plant response rating, Barnyardgrass [2, 14]: 20
- Plant response rating, Barnyardgrass [2, 15]: 20
- Plant response rating, Flood, Rice (rice (Oryza sativa); [12]): 25
- Plant response rating, Rice (rice (Oryza sativa); [13]): 0
- Plant response rating, Rice (rice (Oryza sativa); [14]): 10
- Plant response rating, Rice (rice (Oryza sativa); [15]): 15
- Plant response rating, Flood, Ducksalad [3, 12]: 50
- Plant response rating, Ducksalad [3, 13]: 0
- Plant response rating, Ducksalad [3, 14]: 0
- Plant response rating, Ducksalad [3, 15]: 0
- Plant response rating, Flood, Sedge, Umbrella [4, 12]: 60
- Plant response rating, Sedge, Umbrella [4, 13]: 0
- Plant response rating, Sedge, Umbrella [4, 14]: 30
- Plant response rating, Sedge, Umbrella [4, 15]: 40
- Barnyardgrass plant response rating [5, 16]: 50
- Plant response rating, Barnyardgrass [5, 17]: 70
- Plant response rating, Barnyardgrass [5, 18]: 0
- Plant response rating, Barnyardgrass [5, 19]: 10
- Morningglory plant response rating [6, 16]: 90
- Plant response rating, Morningglory [6, 17]: 90
- Plant response rating, Morningglory [6, 18]: 30
- Plant response rating, Morningglory [6, 19]: 60
- Velvetleaf plant response rating [7, 16]: 100
- Plant response rating, Velvetleaf [7, 17]: 100
- Plant response rating, Velvetleaf [7, 18]: 60
- Plant response rating, Velvetleaf [7, 19]: 60
- Pigweed plant response rating [8, 16]: 90
- Plant response rating, Pigweed [8, 17]: 100
- Plant response rating, Pigweed [8, 18]: 50
- Plant response rating, Pigweed [8, 19]: 100
- Wheat plant response rating [9, 16]: 0
- Plant response rating, Wheat [9, 17]: 0
- Plant response rating, Wheat [9, 18]: 0
- Plant response rating, Wheat [9, 19]: 0
- Crabgrass, Large plant response rating [10, 16]: 70
- Plant response rating, Crabgrass, Large [10, 17]: 90
- Plant response rating, Crabgrass, Large [10, 18]: 0
- Plant response rating, Crabgrass, Large [10, 19]: 50
- Foxtail, Giant plant response rating [11, 16]: 20
- Plant response rating, Foxtail, Giant [11, 17]: 60
- Plant response rating, Foxtail, Giant [11, 18]: 0
- Plant response rating, Foxtail, Giant [11, 19]: 0
- Corn plant response rating (corn (Zea mays); [16]): 0
- Plant response rating, Corn (corn (Zea mays); [17]): 10
- Plant response rating, Corn (corn (Zea mays); [18]): 0
- Plant response rating, Corn (corn (Zea mays); [19]): 0
